This note sets out measurements from US5391817A, “Biaryl phospholipase A2 inhibitors” (Bristol-Myers Squibb, priority 1993, dated 1995).

The target of the experiment is T1, PLA2 (Homo sapiens, UniProt P14555).
T1 construct: The enzyme is isolated from human platelets; from tissue; host or cells: human platelets
T1 sequence (P14555 21-144): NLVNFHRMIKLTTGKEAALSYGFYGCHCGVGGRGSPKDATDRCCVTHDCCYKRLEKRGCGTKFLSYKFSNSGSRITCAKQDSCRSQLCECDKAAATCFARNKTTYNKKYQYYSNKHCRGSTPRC
Kind of experiment: PLA2 Inhibition Assay (14C-oleate labeled E. coli membrane substrate). The format is biochemical. The conditions noted are these: PLA2 from human platelets, pH 7, 37° C.; for % Inhibition of PLA2 at 100 .infin.M: 100 μM (sic, Table 6). How it is done: The method used is similar to that reported by Franson, et al. [Jesse, R. L. and Franson R. C., Biochim. Biophys. Acta 575: 467-470 (1979); Franson, R. C., Patriarca, P., and Elsback, P., J. Lipid Res. 15: 380-388 (1974)]. The enzyme is isolated from human platelets. The substrate used consists of ^14 C-oleate labeled Escherichia coli membranes. E. coli cells are grown in the presence of ^14 C-oleic acid and then autoclaved to prepare the membranes.
Various concentrations of test compounds are preincubated with PLA2 (3.6 mg/mL in a buffer consisting of 25 mM HEPES (pH 7)), 150 mM NaCl, 5.0 mM CaCl2, and 10% DMSO (v/v, test compound solvent) at 37° C. for 7 minutes. The E. coli substrate is then added (0.1 mM phospholipid, 0,005 mCi ^14 C) and the reaction is then incubated at 37° C. for 30 minutes. The reaction is then terminated by the addition of 1.9 mL tetrahydrofuran (THF), and the entire solution is applied to a solid-phase extraction column (aminopropyl resin, Analytichem). The column is rinsed with an additional 1 mL of THF. The free fatty acid product of the reaction is then eluted from the column with 1 mL 2% acetic acid in THF and collected in a scintillation vial. The amount of free fatty acid product is determined by liquid scintillation counting. The amount of inhibition produced by the test compound is calculated by comparing the counts obtained in the presence of the compound to those obtained in its absence (solvent only). Background counts were determined by performing incubations in the absence of enzyme.
Percent inhibition is determined by the equation: [formula]

Structures are written as SMILES.

Compound `CC1(C)CCC(C)(C)c2cc(COc3c(C(=O)O)cccc3-c3ccccc3)ccc21` [Structure 48, 2-[5,6,7,8-tetrahydro-5,5,8,8-tetramethyl-2-naphthalenyl]methoxy-[1,1'-biphenyl]-3-carboxylic acid] yielded an inhibition at 100 µM of 88%.
On the same count and under the same terms, with `CCOC(=O)c1cccc(-c2c(OCc3ccc4c(c3)C(C)(C)CCC4(C)C)cccc2C(=O)O)c1` [Structure 14l, 2-(5,6,7,8-tetrahydro-5,5,8,8-tetramethyl-2-naphthalenyl)methoxy-[1,1'-biphenyl]-6,3'-dicarboxylic acid, 3'-ethyl ester] the figure was 54%.
Same read-out and setting: with `CC1(C)CCC(C)(C)c2cc(COc3cccc(C(=O)O)c3-c3ccc(CCO)cc3)ccc21` [Structure 14p, 2-(5,6,7,8-tetrahydro-5,5,8,8-tetramethyl-2-naphthalenyl)methoxy-4'-(2-hydroxy-1-ethyl)-[1,1'-biphenyl]-6-carboxylic acid] the figure was 88%.
Still for that read-out and setting: the same measure for `CC(C)=CCOc1ccc(COc2cccc(/C=C/C(=O)O)c2-c2cccc(C(=O)O)c2)cc1OCC=C(C)C` [Structure 39a, 2-[3,4-his (3-methyl-2-butenyloxy)phenyl]methoxy-3'-carboxy-[1,1'-biphenyl]-6-[(E)-3-propenoic acid]]: 73%.
As for `CC1(C)CCC(C)(C)c2cc(COc3ccccc3-c3ccc(C(=O)O)cc3)ccc21` [Structure 52b, 2-[5,6,7,8-tetrahydro-5,5,8,8-tetramethyl-2-naphthalenyl]methoxy-[1,1'-biphenyl]-4'-carboxylic acid], the “% Inhibition of PLA2 at 100 .infin.M” value was 66%.
For the compound `CC1(C)CCC(C)(C)c2cc(COc3cccc(C(=O)O)c3-c3cccc(C(=O)O)c3)ccc21` [Structure 14m, 2-(5,6,7,8-tetrahydro-5,5,8,8-tetramethyl-2-naphthalenyl)methoxy-[1,1'-biphenyl]-6,3'-dicarboxylic acid], the inhibition at 100 µM was 54%.
Same read-out and setting: the same measure for `O=C(O)Cc1cccc(/C=C/c2ccccc2)c1-c1cccc(C(=O)O)c1` [Structure 28a, (E) 2-styryl-6-carboxymethyl-1,1'-biphenyl-3'-carboxylic acid]: 28%.
The same measure, in the same setting: with `COc1cc(COc2cccc(C(=O)O)c2-c2cccc(C(=O)O)c2)ccc1C12CC3CC(CC(C3)C1)C2` [Structure 14h, 2-[4-(1-adamantyl)-3-methoxyphenyl]methoxy-[1,1,-biphenyl]-6,3'-dicarboxylic acid] the figure was 62%.
On the same count and under the same terms, with `CC1(C)CCC(C)(C)c2cc(COc3ccc(C(=O)O)cc3-c3ccccc3)ccc21` [Structure 44, 2-[5,6,7,8-tetrahydro-5,5,8,8-tetramethyl-2-naphthalenyl]methoxy-[1,1'-biphenyl]-5-carboxylic acid] the figure was 70%.
`CCCCCOc1ccc(COc2cccc(C(=O)O)c2-c2ccccc2)cc1OC(C)=O` [Structure 14f, 2-[(3-acetoxy-4-pentyloxy)phenyl]methoxy-[1,1'-biphenyl]-6-carboxylic acid] yielded an inhibition at 100 µM of 30%.
Same read-out and setting: with `CCCCCOc1ccc(COc2cccc(/C=C/C(=O)O)c2-c2cccc(C(=O)O)c2)cc1OCCCCC` [Structure 39c] the figure was 59%; with `CC1(C)CCC(C)(C)c2cc(COc3cccc(C(=O)O)c3-c3ccccc3)ccc21` [Structure 14n, 2-(5,6,7,8-tetrahydro-5,5,8,8-tetramethyl-2-naphthalenyl)methoxy-[1,1'-biphenyl]-6-carboxylic acid], 90%.
On to `CCCCCCCCCCOc1ccc(COc2cccc(CC(=O)O)c2-c2cccc(C(=O)O)c2)cc1` [Structure 30c, 3'-carboxy-2-[4-decyloxyphenyl]methoxy-[1,1'-biphenyl]-6-acetic acid], for which at 100 µM the inhibition was 99%.
Turning to `CC(C)(C)c1ccc(-c2c(OCc3ccc4c(c3)C(C)(C)CCC4(C)C)cccc2C(=O)O)cc1` [Structure 14o, 2-(5,6,7,8-tetrahydro-5,5,8,8-tetramethyl-2-naphthalenyl)methoxy-[1,1'-biphenyl]-4'-(1,1-dimethylethyl)-6-carboxylic acid], the inhibition at 100 µM came to 99%.
On the same count and under the same terms, the same measure for `CC1(C)CCC(C)(C)c2cc(COc3cccc(CC(=O)O)c3-c3ccccc3)ccc21` [Structure 30e, 2-(5,6,7,8-tetrahydro-5,5,8,8-tetramethyl-2-naphthalenyl)methoxy-[1,1'-biphenyl]-6-acetic acid]: 59%.
For `CC1(C)CCC(C)(C)c2cc(COc3ccccc3-c3cccc(C(=O)O)c3)ccc21` [Structure 52a, 2-[5,6,7,8-tetrahydro-5,5,8,8-tetramethyl-2-naphthalenyl]methoxy-[1,1'-biphenyl]-3'-carboxylic acid], the “% Inhibition of PLA2 at 100 .infin.M” value stood at 83%.
Compound `COc1cc(COc2cccc(CC(=O)O)c2-c2cccc(C(=O)O)c2)ccc1C12CC3CC(CC(C3)C1)C2` [Structure 30d, 3'-carboxy-2-[4-(1-adamantyl)-3-methoxyphenyl]methoxy-[1,1'-biphenyl]-6-acetic acid] returned an inhibition at 100 µM of 97%.
Turning to `CC1(C)CCC(C)(C)c2cc(COc3ccccc3-c3ccccc3C(=O)O)ccc21` [Structure 52c, 2-[5,6,7,8-tetrahydro-5,5,8,8-tetramethyl-2-naphthalenyl]methoxy-[1,1'-biphenyl]-2'-carboxylic acid], the “% Inhibition of PLA2 at 100 .infin.M” value turned out to be 72%.
Same read-out and setting: the same measure for `CC1(C)CCC(C)(C)c2cc(COc3ccccc3-c3cccc(CC(=O)O)c3)ccc21` [Structure 57, 2-[5,6,7,8-tetrahydro-5,5,8,8-tetramethyl-2-naphthalenyl]methoxy-[1,1'-biphenyl]-3'-acetic acid]: 92%.
`O=C(O)c1cccc(-c2c(OCc3ccc(OC4CCCC4)c(OC4CCCC4)c3)cccc2C(=O)O)c1` [Structure 14d, 2-[(3,4-biscyclopentyloxy)phenyl]methoxy-[1,1 'biphenyl]-6,3'-dicarboxylic acid] returned an inhibition at 100 µM of 73%.
With `CC1(C)CCC(C)(C)c2cc(COc3cccc(CC(=O)O)c3-c3cccc(C(=O)O)c3)ccc21` [Structure 30f, 3'-carboxy-2-(5,6,7,8-tetrahydro-5,5,8,8-tetramethyl-2-naphthalenyl)methoxy-[1,1'-biphenyl]-6-acetic acid], at 100 µM the inhibition was 80%.
On the same count and under the same terms, the same measure for `CCCCCOc1ccc(COc2cccc(CC(=O)O)c2-c2cccc(C(=O)O)c2)cc1OCCCCC` [Structure 30a, 2-[(3,4-bispentyloxy)phenyl]methoxy-3'-carboxy-[1,1'-biphenyl]-6-acetic acid]: 96%.
Same read-out and setting: with `O=C(O)/C=C/c1cccc(OCc2ccc(OC3CCCC3)c(OC3CCCC3)c2)c1-c1cccc(C(=O)O)c1` [Structure 39b] the figure was 86%; with `CC(C)=CCOc1ccc(COc2cccc(C(=O)O)c2-c2cccc(C(=O)O)c2)cc1OCC=C(C)C` [Structure 14b, 2-[3,4-bis(3-methyl-2-butenyloxy)phenyl]methoxy-[1,1'-biphenyl]-6,3'-dicarboxylic acid], 20%.
Take `CC(C)=CCOc1ccc(COc2cccc(CCC(=O)O)c2-c2cccc(C(=O)O)c2)cc1OCC=C(C)C` [Structure 37a, 2-[3,4-bis(3-methyl-2-butenyloxy)phenyl]methoxy-3'-carboxy-[1,1'-biphenyl]-6-propanoic acid]: the inhibition at 100 µM was found to be 55%.

What is called inhibition is the relative decrease from the control value, in per cent. A low value points to a weak effect.
